Source: ChEMBL document CHEMBL1149820, “Synthesis, properties and photodynamic inactivation of Escherichia coli by novel cationic fullerene C60 derivatives” (2008)

Tests used:
Type in all cases: functional
Escherichia coli [1] = experiment: Photoinactivation of Escherichia coli EC7 assessed as log reduction of cell survival at 5 uM after 30 mins of irradiation
Escherichia coli [2] = experiment: Photoinactivation of Escherichia coli EC7 at 1 uM after 5 mins of irradiation
Escherichia coli [3] = experiment: Photoinactivation of Escherichia coli EC7 at 1 uM after 20 mins of irradiation

Row | SMILES | Survival (Escherichia coli [1]) | Activity (Escherichia coli [2]) [%] | Activity (Escherichia coli [3]) [%]
1 | Cc1ccc(-c2c3nc(c(-c4ccc([N+](C)(C)C)cc4)c4ccc([nH]4)c(-c4ccc([N+](C)(C)C)cc4)c4nc(c(-c5ccc(C)cc5)c5ccc2[nH]5)C=C4)C=C3)cc1.[I-].[I-] | 3.2 | 70 | 
2 | C[N+](C)(C)CCCOc1ccc(-c2c3nc(c(-c4ccc(C(F)(F)F)cc4)c4ccc([nH]4)c(-c4ccc(OCCC[N+](C)(C)C)cc4)c4nc(c(-c5ccc(C(F)(F)F)cc5)c5ccc2[nH]5)C=C4)C=C3)cc1.[I-].[I-] |  |  | 87
